Test results from patent publication US4396625A, “Treatment of glaucoma or ocular hypertension and ophthalmic composition” (Sumitomo Chemical Company, Limited, priority 1980, dated 1983).
Where a name gives a salt, the structure may show the parent alone.

Key:
[1] = tested on: intra-ocular pressure of the eye; experiment: Intra-ocular pressure measurement after ophthalmic administration in albino rabbits; format: in vivo; settings: rabbit
Procedure: (§1) One drop (about 0.04 ml) of the ophthalmic composition was applied to a conjunctival sac of one eye and a drop of physiologic saline was into the conjunctival sac of the other eye. Thus applied eyes were kept closed for 5 to 10 seconds to ensure the osmosis of the medicament administered. Intra-ocular pressure in the respective eye was measured by using an Alcon Pneumatonography, just before the treatment with said medicine, and 1 to 24 hours after said administration. At each time, one drop of 0.4% oxydibucaine HCl ophthalmic composition (Trade Mark: Benoxyl® 0.4%; Santen Seiyaku K.K.) was applied to and intra-ocular pressure was measured after 20 to 30 seconds thereafter.
Using the same procedure as stated in Example 1, compound (I) was evaluated with 12 albino rabbits (male; body weight 2 to 3 kg, native kind). As the test medicaments, aqueous 0.5 w/v % and 0.25 w/v % compound (I) HCl solutions prepared according to Example 4 were used, as well as physiologic saline control solution.

[2] = tested on: intra-ocular pressure of the eye; experiment: Intra-ocular pressure measurement after local (ophthalmic) administration in dogs; format: in vivo, dog (Beagle); settings: dog, 0.5 w/v %, one drop
Procedure: In the local administration tests, compound (I) was applied to one eye of healthy grown-up dog (male or female; body weight 10 to 14 kg; Beagle dog) being normal in sense of sight and other sensitive faculties and having no morphological abnormality in the eyes, and evaluated for the effect thereof.
The test ophthalmic composition was prepared according to the recipe of Example 4, so as to include 0.5 w/v % of compound (I) HCl salt.
as §1

[3] = Stability / precipitation of ophthalmic solution on storage; format: physicochemical; settings: 40° C., 3 months
Procedure: To a part of distilled water required, was added 500 mg of compound (I) hydrochloride and the mixture was stirred at room temperature to dissolve the active ingredient. Next, D-mannitol 5 g, glycine 500 mg and Benzalkonium chloride 5 mg were added in this order and dissolved in the same way. After adjusting pH of the solution to 5.5 with hydrochloric acid, the mixture was added with distilled water to make the total volume to 100 ml. The solution was filtered under sterile conditions.
The following ophthalmic composition was prepared in the same way as stated in Example 4, using 100 mg of compound (I) acetate in place of 500 mg of compound (I) hydrochloride.
To a part of the required distilled water, was added 250 mg of compound (I) maleate, and the mixture was heated to 30° C. and stirred to dissolve the active ingredient. To this solution, 4 g of D-manitol, 1 g of glycine and 5 mg of Benzalkonium chloride were added and dissolved in this order. After adjusting pH of the solution to 6.0 with hydrochloric acid, the solution was added with distilled water to make the volume to 100 ml, and thus obtained solution was filtered under sterile conditions.

[4] = Rat acute toxicity; format: in vivo; settings: in vivo
[5] = tested on: rat; experiment: Rat acute toxicity; format: in vivo; settings: acute toxicity
[6] = tested on: mouse; experiment: Mouse acute toxicity; format: in vivo; settings: acute toxicity
[7] = Mouse acute toxicity; format: in vivo; settings: in vivo

## CC(C)(C)NCC(O)CSc1nc(-c2ccc(C(N)=O)s2)cs1 (centres unmarked) [compound (I) HCl]
[1]; 0.25 w/v %, 0.5 hour later
  Intra-ocular pressure (mean ± standard error): 20.7 ± 0.7 mm Hg
[1]; 0.25 w/v %, 1 hour later
  Intra-ocular pressure (mean ± standard error): 20.2 ± 0.6 mm Hg
[1]; 0.25 w/v %, 2 hours later
  Intra-ocular pressure (mean ± standard error): 19.8 ± 0.5 mm Hg
[1]; 0.25 w/v %, 3 hours later
  Intra-ocular pressure (mean ± standard error): 20.1 ± 0.6 mm Hg
[1]; 0.25 w/v %, 5 hours later
  Intra-ocular pressure (mean ± standard error): 22.1 ± 0.6 mm Hg
[1]; 0.25 w/v %, 7 hours later
  Intra-ocular pressure (mean ± standard error): 22.9 ± 0.8 mm Hg
[1]; 0.25 w/v %, 9 hours later
  Intra-ocular pressure (mean ± standard error): 21.0 ± 0.7 mm Hg
[1]; 0.25 w/v %, 24 hours later
  Intra-ocular pressure (mean ± standard error): 22.2 ± 0.6 mm Hg
[1]; 0.25 w/v %, before administration
  Intra-ocular pressure (mean ± standard error): 21.8 ± 0.5 mm Hg
[1]; 0.5 w/v %, 0.5 hour later
  Intra-ocular pressure (mean ± standard error): 21.1 ± 0.8 mm Hg
[1]; 0.5 w/v %, 1 hour later
  Intra-ocular pressure (mean ± standard error): 18.9 ± 0.9 mm Hg
[1]; 0.5 w/v %, 2 hours later
  Intra-ocular pressure (mean ± standard error): 18.5 ± 0.9 mm Hg
[1]; 0.5 w/v %, 3 hours later
  Intra-ocular pressure (mean ± standard error): 18.2 ± 0.8 mm Hg
[1]; 0.5 w/v %, 5 hours later
  Intra-ocular pressure (mean ± standard error): 21.6 ± 0.8 mm Hg
[1]; 0.5 w/v %, 7 hours later
  Intra-ocular pressure (mean ± standard error): 22.8 ± 0.8 mm Hg
[1]; 0.5 w/v %, 9 hours later
  Intra-ocular pressure (mean ± standard error): 22.2 ± 0.8 mm Hg
[1]; 0.5 w/v %, 24 hours later
  Intra-ocular pressure (mean ± standard error): 22.5 ± 0.8 mm Hg
[1]; 0.5 w/v %, before administration
  Intra-ocular pressure (mean ± standard error): 22.5 ± 0.6 mm Hg
[2]; 1 hour later
  Intra-ocular pressure (mean ± standard error): 20.0 ± 0.9 mm Hg
[2]; 3 hours later
  Intra-ocular pressure (mean ± standard error): 16.6 ± 1.0 mm Hg
[2]; 5 hours later
  Intra-ocular pressure (mean ± standard error): 15.4 ± 0.9 mm Hg
[2]; 7 hours later
  Intra-ocular pressure (mean ± standard error): 16.0 ± 1.3 mm Hg
[2]; 9 hours later
  Intra-ocular pressure (mean ± standard error): 17.6 ± 1.2 mm Hg
[2]; 12 hours later
  Intra-ocular pressure (mean ± standard error): 20.4 ± 0.7 mm Hg
[2]; 24 hours later
  Intra-ocular pressure (mean ± standard error): 20.6 ± 0.8 mm Hg
[2]; before administration
  Intra-ocular pressure (mean ± standard error): 20.8 ± 0.9 mm Hg
[3]; 0.5 % (w/v), pH 5.5
  stability / precipitation of ophthalmic solution: very stable and no precipitation was observed

## CC(C)(C)NCC(O)CSc1nc(-c2ccc(C(N)=O)s2)cs1 (centres unmarked) [compound (I) acetate]
[3]; 0.1 % (w/v)
  stability / precipitation of ophthalmic solution: very stable and no precipitation was observed

## CC(C)(C)NCC(O)CSc1nc(-c2ccc(C(N)=O)s2)cs1 (centres unmarked) [compound (I), 2-(3-tert.-butylamino-2-hydroxypropylthio)-4-(5-carbamoyl-2-thienyl)-thiazole]
[4]; ip, intraperitoneal
  LD50: 340 mg/kg
[4]; oral
  LD50: > 3000 mg/kg
[5]
  toxic signs: no animals showed particular troublesome symptoms
[6]
  toxic signs: no animals showed particular troublesome symptoms
[7]; ip, intraperitoneal
  LD50: 500 mg/kg
[7]; oral
  LD50: > 5000 mg/kg

## CC(C)(C)NCC(O)CSc1nc(-c2ccc(C(N)=O)s2)cs1 (centres unmarked) [compound (I) maleate]
[3]; 0.25 % (w/v), pH 6.0
  stability / precipitation of ophthalmic solution: very stable and no precipitation was observed
